Laboratory results reported in patent US10670605B2, “Cysteine reactive probes and uses thereof” (The Scripps Research Institute, priority 2015, dated 2020).
One block for each compound: values may come before it.

What was measured:
Assay in all cases: Competitive isoTOP-ABPP in situ (fragment-treated cells)
Assay type in all cases: cell-based
[1] = biological target: cysteines in MDA-MB-231 and Ramos cells (Homo sapiens, UniProt P35658)
[2] = biological target: cysteines in MDA-MB-231 and Ramos cells (Homo sapiens, UniProt Q13630); details: 200 μM, insitu
cysteines in MDA-MB-231 and Ramos cells (Homo sapiens, UniProt Q13630), sequence (Q13630 whole entry): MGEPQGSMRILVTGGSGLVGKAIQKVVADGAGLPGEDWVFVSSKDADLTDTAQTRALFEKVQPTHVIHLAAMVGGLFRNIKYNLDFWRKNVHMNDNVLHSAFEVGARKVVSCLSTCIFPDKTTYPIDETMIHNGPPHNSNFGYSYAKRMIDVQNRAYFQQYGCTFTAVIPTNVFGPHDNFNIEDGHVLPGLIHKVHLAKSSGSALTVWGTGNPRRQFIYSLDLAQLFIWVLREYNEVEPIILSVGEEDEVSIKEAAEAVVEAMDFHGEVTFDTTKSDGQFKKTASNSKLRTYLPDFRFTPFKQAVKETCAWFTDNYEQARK

[3] = biological target: cysteines in MDA-MB-231 and Ramos cells (Homo sapiens, UniProt Q14790)
cysteines in MDA-MB-231 and Ramos cells (Homo sapiens, UniProt Q14790), sequence (Q14790 217-479): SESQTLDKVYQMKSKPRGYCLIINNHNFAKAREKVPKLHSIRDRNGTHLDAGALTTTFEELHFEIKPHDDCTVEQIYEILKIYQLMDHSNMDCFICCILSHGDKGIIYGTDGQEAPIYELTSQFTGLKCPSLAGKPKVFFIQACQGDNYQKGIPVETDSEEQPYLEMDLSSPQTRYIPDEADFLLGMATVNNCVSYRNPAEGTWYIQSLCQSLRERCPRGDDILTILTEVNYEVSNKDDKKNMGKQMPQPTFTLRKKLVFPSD

[4] = biological target: T1, cysteines in MDA-MB-231 and Ramos cells (Homo sapiens, UniProt A0AVT1)
T1 sequence (A0AVT1 1-1052): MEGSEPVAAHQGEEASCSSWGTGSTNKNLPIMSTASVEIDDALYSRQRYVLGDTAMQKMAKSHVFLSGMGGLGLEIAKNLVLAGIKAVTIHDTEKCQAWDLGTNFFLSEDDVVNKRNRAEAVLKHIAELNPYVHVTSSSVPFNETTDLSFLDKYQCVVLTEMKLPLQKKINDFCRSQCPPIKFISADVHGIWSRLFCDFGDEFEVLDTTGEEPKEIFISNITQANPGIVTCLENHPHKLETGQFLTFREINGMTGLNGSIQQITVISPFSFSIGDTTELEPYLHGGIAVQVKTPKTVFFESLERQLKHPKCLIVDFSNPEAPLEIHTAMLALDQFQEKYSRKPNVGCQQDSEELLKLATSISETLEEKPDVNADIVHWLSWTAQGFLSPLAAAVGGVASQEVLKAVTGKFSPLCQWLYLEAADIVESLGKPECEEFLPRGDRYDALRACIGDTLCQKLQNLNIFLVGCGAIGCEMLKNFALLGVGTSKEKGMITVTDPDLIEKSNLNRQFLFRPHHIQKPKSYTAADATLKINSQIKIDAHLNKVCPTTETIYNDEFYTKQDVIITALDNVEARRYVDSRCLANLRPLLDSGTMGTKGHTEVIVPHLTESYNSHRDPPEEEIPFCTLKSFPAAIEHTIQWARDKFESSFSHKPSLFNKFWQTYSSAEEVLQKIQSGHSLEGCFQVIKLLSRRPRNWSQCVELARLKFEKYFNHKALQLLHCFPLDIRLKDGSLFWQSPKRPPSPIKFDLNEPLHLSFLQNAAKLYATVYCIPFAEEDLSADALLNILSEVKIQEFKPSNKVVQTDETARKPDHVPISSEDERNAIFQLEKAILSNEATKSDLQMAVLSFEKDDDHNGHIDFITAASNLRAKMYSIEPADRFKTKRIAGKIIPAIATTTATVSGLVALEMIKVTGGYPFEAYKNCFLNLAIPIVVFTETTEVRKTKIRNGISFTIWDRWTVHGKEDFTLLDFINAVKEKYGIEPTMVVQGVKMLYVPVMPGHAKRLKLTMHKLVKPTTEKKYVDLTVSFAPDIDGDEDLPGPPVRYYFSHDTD

[5] = biological target: cysteines in MDA-MB-231 and Ramos cells (Homo sapiens, UniProt Q6XZF7)
cysteines in MDA-MB-231 and Ramos cells (Homo sapiens, UniProt Q6XZF7), sequence (Q6XZF7 whole entry): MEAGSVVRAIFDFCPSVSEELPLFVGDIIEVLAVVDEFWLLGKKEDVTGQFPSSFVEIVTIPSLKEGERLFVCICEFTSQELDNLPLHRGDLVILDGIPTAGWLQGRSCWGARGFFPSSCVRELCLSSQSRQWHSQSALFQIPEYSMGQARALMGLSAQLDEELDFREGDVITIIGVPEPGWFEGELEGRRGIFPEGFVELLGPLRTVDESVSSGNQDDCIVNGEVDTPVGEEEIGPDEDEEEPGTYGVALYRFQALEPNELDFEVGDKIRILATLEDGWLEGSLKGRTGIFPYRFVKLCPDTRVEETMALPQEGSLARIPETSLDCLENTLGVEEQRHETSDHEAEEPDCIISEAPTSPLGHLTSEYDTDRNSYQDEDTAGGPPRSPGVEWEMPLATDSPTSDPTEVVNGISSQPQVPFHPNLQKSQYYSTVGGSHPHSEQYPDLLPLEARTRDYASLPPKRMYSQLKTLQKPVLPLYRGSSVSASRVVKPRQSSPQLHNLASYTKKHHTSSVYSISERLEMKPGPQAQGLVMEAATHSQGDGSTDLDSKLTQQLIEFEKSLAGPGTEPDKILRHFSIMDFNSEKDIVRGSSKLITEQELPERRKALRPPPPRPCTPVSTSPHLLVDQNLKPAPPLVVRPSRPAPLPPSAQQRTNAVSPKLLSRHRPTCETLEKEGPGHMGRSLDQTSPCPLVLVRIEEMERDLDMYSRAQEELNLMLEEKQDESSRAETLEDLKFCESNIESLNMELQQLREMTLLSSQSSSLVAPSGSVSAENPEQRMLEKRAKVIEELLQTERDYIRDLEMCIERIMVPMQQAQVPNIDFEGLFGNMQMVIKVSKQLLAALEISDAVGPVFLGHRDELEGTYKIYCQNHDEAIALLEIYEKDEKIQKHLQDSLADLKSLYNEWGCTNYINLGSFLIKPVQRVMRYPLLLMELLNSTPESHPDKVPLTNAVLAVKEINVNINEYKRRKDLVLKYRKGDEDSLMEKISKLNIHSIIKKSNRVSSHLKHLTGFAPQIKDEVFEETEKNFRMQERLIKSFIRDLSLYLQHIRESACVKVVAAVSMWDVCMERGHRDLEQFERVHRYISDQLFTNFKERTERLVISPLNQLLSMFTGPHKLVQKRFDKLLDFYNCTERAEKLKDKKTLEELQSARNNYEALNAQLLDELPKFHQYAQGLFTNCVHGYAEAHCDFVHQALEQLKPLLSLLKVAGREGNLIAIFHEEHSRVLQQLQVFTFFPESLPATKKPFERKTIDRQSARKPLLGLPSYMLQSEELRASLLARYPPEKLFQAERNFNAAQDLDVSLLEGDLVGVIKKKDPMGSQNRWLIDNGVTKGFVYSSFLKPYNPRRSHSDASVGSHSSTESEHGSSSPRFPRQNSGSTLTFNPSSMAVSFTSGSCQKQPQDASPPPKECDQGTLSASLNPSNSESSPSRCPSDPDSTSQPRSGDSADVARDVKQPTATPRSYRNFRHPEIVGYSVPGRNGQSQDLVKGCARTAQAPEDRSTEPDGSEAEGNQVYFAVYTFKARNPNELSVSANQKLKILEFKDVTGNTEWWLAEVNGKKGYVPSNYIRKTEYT

[6] = biological target: T2, cysteines in MDA-MB-231 and Ramos cells (Homo sapiens, UniProt Q96C19)
T2 sequence (Q96C19 1-240): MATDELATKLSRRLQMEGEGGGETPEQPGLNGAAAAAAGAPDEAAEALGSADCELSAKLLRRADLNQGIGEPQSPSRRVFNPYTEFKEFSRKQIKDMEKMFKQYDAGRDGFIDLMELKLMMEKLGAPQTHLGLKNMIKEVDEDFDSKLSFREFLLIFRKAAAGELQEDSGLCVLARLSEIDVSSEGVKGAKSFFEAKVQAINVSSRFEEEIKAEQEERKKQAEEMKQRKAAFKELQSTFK

[7] = biological target: cysteines in MDA-MB-231 and Ramos cells (Homo sapiens, UniProt Q9BRF8)
cysteines in MDA-MB-231 and Ramos cells (Homo sapiens, UniProt Q9BRF8), sequence (Q9BRF8 whole entry): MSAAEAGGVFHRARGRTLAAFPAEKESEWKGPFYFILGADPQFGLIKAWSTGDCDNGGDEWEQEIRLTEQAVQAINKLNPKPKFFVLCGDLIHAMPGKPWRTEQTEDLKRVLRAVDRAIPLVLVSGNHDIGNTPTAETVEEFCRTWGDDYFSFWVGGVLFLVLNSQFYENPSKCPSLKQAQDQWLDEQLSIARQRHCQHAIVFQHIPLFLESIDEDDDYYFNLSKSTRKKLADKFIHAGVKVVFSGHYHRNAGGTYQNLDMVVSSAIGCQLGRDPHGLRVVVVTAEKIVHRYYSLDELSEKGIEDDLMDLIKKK

[8] = biological target: T3, cysteines in MDA-MB-231 and Ramos cells (Homo sapiens, UniProt Q9NPH0)
T3 sequence (Q9NPH0 33-428): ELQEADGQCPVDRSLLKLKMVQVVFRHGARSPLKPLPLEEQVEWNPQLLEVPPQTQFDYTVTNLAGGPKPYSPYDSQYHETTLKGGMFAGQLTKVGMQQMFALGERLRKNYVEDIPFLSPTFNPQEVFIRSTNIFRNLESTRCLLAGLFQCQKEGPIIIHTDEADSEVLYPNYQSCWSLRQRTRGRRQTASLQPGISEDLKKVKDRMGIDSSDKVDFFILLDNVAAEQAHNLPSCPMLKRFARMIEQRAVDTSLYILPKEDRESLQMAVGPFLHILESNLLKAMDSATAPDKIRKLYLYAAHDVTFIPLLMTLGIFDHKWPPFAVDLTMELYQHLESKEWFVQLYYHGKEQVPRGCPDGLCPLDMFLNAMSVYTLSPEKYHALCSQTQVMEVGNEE

[9] = biological target: T4, cysteines in MDA-MB-231 and Ramos cells (Homo sapiens, UniProt Q86W42)
T4 sequence (Q86W42 1-341): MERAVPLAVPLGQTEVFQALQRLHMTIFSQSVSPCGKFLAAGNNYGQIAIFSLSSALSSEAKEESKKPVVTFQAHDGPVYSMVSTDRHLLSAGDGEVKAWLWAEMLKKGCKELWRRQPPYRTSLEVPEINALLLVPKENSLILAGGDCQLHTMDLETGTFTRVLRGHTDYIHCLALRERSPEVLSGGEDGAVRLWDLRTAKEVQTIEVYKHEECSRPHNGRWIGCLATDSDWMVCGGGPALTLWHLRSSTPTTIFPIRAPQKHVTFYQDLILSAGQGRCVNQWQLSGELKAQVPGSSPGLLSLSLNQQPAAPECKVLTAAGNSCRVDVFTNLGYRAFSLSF

cysteines in MDA-MB-231 and Ramos cells (Homo sapiens, UniProt P35658), sequence (P35658 whole entry): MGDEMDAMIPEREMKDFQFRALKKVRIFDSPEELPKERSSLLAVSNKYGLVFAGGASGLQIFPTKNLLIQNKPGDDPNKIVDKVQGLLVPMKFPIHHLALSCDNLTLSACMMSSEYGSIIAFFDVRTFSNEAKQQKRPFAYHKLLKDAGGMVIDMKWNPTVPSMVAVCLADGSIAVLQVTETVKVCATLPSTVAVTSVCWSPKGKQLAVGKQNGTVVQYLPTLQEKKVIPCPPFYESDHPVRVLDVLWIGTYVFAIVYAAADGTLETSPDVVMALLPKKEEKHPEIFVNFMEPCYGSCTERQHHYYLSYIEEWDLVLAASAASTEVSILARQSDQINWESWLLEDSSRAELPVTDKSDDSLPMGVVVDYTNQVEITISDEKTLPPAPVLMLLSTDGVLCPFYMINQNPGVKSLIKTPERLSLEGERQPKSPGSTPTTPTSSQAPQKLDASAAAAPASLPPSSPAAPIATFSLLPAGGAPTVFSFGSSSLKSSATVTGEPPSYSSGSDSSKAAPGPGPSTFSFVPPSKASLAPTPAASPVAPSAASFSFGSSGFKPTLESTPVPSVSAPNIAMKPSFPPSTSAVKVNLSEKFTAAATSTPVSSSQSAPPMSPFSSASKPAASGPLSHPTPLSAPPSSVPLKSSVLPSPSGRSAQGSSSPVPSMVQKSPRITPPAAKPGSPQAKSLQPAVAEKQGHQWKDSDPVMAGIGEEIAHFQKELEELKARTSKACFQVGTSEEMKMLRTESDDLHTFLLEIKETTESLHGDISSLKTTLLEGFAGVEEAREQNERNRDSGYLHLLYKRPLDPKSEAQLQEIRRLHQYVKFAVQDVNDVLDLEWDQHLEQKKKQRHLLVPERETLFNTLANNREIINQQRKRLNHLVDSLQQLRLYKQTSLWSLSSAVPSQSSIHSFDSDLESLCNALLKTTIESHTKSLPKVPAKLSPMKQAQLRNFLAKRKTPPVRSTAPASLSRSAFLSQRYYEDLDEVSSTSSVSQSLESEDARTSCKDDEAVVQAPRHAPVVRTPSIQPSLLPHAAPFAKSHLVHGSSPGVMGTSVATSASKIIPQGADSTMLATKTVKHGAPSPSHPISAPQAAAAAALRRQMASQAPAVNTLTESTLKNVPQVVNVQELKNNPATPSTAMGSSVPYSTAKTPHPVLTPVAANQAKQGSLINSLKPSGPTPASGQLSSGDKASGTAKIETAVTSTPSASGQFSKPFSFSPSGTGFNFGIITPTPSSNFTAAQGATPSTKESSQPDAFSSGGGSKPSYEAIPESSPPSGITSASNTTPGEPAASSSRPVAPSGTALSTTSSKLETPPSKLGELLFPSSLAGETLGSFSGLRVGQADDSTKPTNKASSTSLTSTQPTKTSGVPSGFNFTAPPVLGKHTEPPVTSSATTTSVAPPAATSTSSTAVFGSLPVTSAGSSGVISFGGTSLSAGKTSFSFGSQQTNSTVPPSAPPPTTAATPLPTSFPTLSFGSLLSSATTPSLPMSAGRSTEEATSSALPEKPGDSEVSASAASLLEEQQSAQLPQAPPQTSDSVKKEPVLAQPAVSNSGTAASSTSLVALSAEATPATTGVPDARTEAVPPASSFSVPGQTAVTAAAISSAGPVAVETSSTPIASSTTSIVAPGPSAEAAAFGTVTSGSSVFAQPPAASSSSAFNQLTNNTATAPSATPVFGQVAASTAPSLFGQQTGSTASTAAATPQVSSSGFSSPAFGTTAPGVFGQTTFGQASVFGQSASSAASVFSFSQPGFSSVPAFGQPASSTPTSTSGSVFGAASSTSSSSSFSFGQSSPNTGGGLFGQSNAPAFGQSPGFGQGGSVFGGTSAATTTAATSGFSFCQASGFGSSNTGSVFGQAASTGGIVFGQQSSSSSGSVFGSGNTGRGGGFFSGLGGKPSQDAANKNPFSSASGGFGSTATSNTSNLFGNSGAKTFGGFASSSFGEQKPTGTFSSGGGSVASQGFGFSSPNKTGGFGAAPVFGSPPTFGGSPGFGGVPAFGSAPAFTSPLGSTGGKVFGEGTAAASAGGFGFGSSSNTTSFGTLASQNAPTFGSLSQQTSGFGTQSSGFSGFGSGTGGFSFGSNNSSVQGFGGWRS

Compound: COc1ccc2c(c1)CCCN2C(=O)CCl [compound 2]
isoTOP-ABPP reactivity P35658_C728 NUP214 ([1]; 200 μM, insitu, 231): 3.9
isoTOP-ABPP reactivity Q13630_C116 TSTA3 [2]; 231: 20.0
isoTOP-ABPP reactivity Q14790_C360 CASP8 ([3]; 200 μM, insitu, 231): 20.0

Compound: COc1ccc(C2CC(c3cccs3)=NN2C(=O)CCl)cc1 (centres unmarked) [compound 4]
isoTOP-ABPP reactivity A0AVT1_C347 UBA6 ([4]; 100 μM in situ 231): 20.0
isoTOP-ABPP reactivity P35658_C728 NUP214 ([1]; 100 μM in situ 231): 1.7
isoTOP-ABPP reactivity Q14790_C360 CASP8 ([3]; 100 μM in situ 231): 20.0
isoTOP-ABPP reactivity Q6XZF7_C691 DNMBP ([5]; 100 μM in situ 231): 1.2
isoTOP-ABPP reactivity Q96C19_C172 EFHD2 ([6]; 100 μM in situ 231): 5.3
isoTOP-ABPP reactivity Q9BRF8_C54 CPPED1 ([7]; 100 μM in situ 231): 20.0
isoTOP-ABPP reactivity Q9NPH0_C267 ACP6 ([8]; 100 μM in situ 231): 20.0

Compound: COc1cc2c(cc1OC)CN(C(=O)CCl)CC2 [compound 8]
isoTOP-ABPP reactivity Q9NPH0_C267 ACP6 ([8]; 200 μM, insitu, 231): 20.0

Compound: Cn1cc(S(=O)(=O)N2CCOCC2)cc1C(=O)NC(=O)CCl [compound 11]
isoTOP-ABPP ratio, cysteine A0AVT1_C347 ([4]; 100 μM in situ 231): 1.6
isoTOP-ABPP ratio P35658_C728 ([1]; 100 μM in situ 231): 0.8
isoTOP-ABPP ratio Q86W42_C35 ([9]; 100 μM in situ 231): 1.3
isoTOP-ABPP ratio Q96C19_C172 ([6]; 100 μM in situ 231): 0.9
isoTOP-ABPP ratio Q9BRF8_C54 ([7]; 100 μM in situ 231): 1.0

Compound: O=C(CCl)NCCc1c[nH]c2ccccc12 [compound 13]
isoTOP-ABPP ratio, cysteine A0AVT1_C347 ([4]; 200 μM, insitu, 231): 1.3
isoTOP-ABPP ratio P35658_C728 ([1]; 200 μM, insitu, 231): 1.0
isoTOP-ABPP ratio, cysteine Q13630_C116 ([2]; ramos): 1.2
isoTOP-ABPP ratio Q14790_C360 ([3]; 200 μM, insitu, 231): 1.2
isoTOP-ABPP ratio, cysteine Q6XZF7_C691 ([5]; 200 μM, insitu, 231): 1.6
isoTOP-ABPP ratio Q96C19_C172 ([6]; 200 μM, insitu, 231): 0.7
isoTOP-ABPP ratio Q9BRF8_C54 ([7]; 200 μM, insitu, 231): 1.4

Compound: CC(C)CCOCCNC(=O)CCl [compound 27]
isoTOP-ABPP ratio A0AVT1_C347 ([4]; 200 μM, insitu, 231): 0.8
isoTOP-ABPP ratio Q14790_C360 ([3]; 200 μM, insitu, 231): 0.4
isoTOP-ABPP ratio Q86W42_C35 ([9]; 200 μM, insitu, 231): 1.3
isoTOP-ABPP ratio Q9NPH0_C267 ([8]; 200 μM, insitu, 231): 1.3

Compound: COc1ccccc1OCCNC(=O)CCl [compound 28]
isoTOP-ABPP ratio Q86W42_C35 ([9]; 200 μM, insitu, 231): 1.3

Compound: C=CC(=O)N(Cc1cccnc1)c1cc(C(F)(F)F)cc(C(F)(F)F)c1 [compound 31]
isoTOP-ABPP ratio A0AVT1_C347 ([4]; 200 μM, insitu, ramos): 1.9
isoTOP-ABPP ratio P35658_C728 ([1]; 200 μM, insitu, 231): 0.7
isoTOP-ABPP ratio Q14790_C360 ([3]; 200 μM, insitu, 231): 0.5
isoTOP-ABPP ratio Q6XZF7_C691 ([5]; 200 μM, insitu, 231): 2.3
isoTOP-ABPP ratio Q86W42_C35 ([9]; 200 μM, insitu, 231): 0.5
isoTOP-ABPP ratio Q96C19_C172 ([6]; 200 μM, insitu, 231): 1.6

Compound: C=CC(=O)Nc1cc(F)c(N2CCN(C(=O)OC(C)(C)C)CC2)c(F)c1 [compound 38]
isoTOP-ABPP ratio Q14790_C360 ([3]; 200 μM, insitu, 231): 1.0
isoTOP-ABPP ratio Q86W42_C35 ([9]; 200 μM, insitu, 231): 0.8
isoTOP-ABPP ratio Q96C19_C172 ([6]; 200 μM, insitu, 231): 0.7

The next lines start with the values.

isoTOP-ABPP reactivity A0AVT1_C347 UBA6 ([4]; 200 μM, insitu, 231): 3.3
isoTOP-ABPP reactivity Q13630_C116 TSTA3 [2]; 231: 1.9
isoTOP-ABPP reactivity Q6XZF7_C691 DNMBP ([5]; 200 μM, insitu, 231): 3.4
isoTOP-ABPP reactivity Q86W42_C35 THOC6 ([9]; 200 μM, insitu, 231): 20.0
isoTOP-ABPP reactivity Q96C19_C172 EFHD2 ([6]; 200 μM, insitu, 231): 2.8
isoTOP-ABPP reactivity Q9BRF8_C54 CPPED1 ([7]; 200 μM, insitu, 231): 2.4
Compound: O=C(CCl)N1CCC(Cc2ccccc2)CC1 [compound 9]

isoTOP-ABPP ratio, cysteine A0AVT1_C347 ([4]; 200 μM, insitu, ramos): 20.0
isoTOP-ABPP ratio P35658_C728 ([1]; 200 μM, insitu, 231): 20.0
isoTOP-ABPP ratio, cysteine Q13630_C116 [2]; 231: 20.0
isoTOP-ABPP ratio Q14790_C360 ([3]; 200 μM, insitu, ramos): 5.8
isoTOP-ABPP ratio, cysteine Q6XZF7_C691 ([5]; 200 μM, insitu, 231): 20.0
isoTOP-ABPP ratio, cysteine Q6XZF7_C691 ([5]; 200 μM, insitu, ramos): 20.0
isoTOP-ABPP ratio Q96C19_C172 ([6]; 200 μM, insitu, 231): 2.4
isoTOP-ABPP ratio Q9BRF8_C54 ([7]; 200 μM, insitu, 231): 3.8
isoTOP-ABPP ratio, cysteine Q9NPH0_C267 ([8]; 200 μM, insitu, 231): 13.4
Compound: O=C(CCl)N1CCN(S(=O)(=O)c2ccccc2F)CC1 [compound 10]

isoTOP-ABPP ratio Q96C19_C172 ([6]; 200 μM, insitu, 231): 0.9
isoTOP-ABPP ratio Q9BRF8_C54 ([7]; 200 μM, insitu, 231): 1.2
Compound: O=C(CCl)NC(=O)NC12CC3CC(CC(C3)C1)C2 [compound 12]

isoTOP-ABPP ratio P35658_C728 ([1]; 200 μM, insitu, 231): 1.3
isoTOP-ABPP ratio, cysteine Q13630_C116 [2]; 231: 0.8
isoTOP-ABPP ratio Q14790_C360 ([3]; 200 μM, insitu, 231): 0.9
isoTOP-ABPP ratio, cysteine Q6XZF7_C691 ([5]; 200 μM, insitu, 231): 0.8
Compound: O=C(CCl)NC12CC3CC(CC(C3)C1)C2 [compound 21]

isoTOP-ABPP ratio P35658_C728 ([1]; 200 μM, insitu, ramos): 1.7
isoTOP-ABPP ratio Q14790_C360 ([3]; 200 μM, insitu, ramos): 1.6
isoTOP-ABPP ratio Q96C19_C172 ([6]; 200 μM, insitu, ramos): 1.2
isoTOP-ABPP ratio Q9BRF8_C54 ([7]; 200 μM, insitu, ramos): 1.5
isoTOP-ABPP ratio Q9NPH0_C267 ([8]; 200 μM, insitu, ramos): 2.1
Compound: O=C(CCl)N1CCN(CC(=O)N2CCOCC2)CC1 [compound 29]

isoTOP-ABPP ratio A0AVT1_C347 ([4]; 200 μM, insitu, 231): 0.6
isoTOP-ABPP ratio P35658_C728 ([1]; 200 μM, insitu, 231): 1.1
isoTOP-ABPP ratio Q14790_C360 ([3]; 200 μM, insitu, 231): 0.5
isoTOP-ABPP ratio Q86W42_C35 ([9]; 200 μM, insitu, 231): 1.1
isoTOP-ABPP ratio Q96C19_C172 ([6]; 200 μM, insitu, 231): 0.5
isoTOP-ABPP ratio Q9BRF8_C54 ([7]; 200 μM, insitu, 231): 0.7
Compound: Cc1ccc(C=C(C#N)C(=O)NCCN2CCOCC2)cc1 [compound 41]

isoTOP-ABPP ratio P35658_C728 ([1]; 200 μM, insitu, 231): 3.1
isoTOP-ABPP ratio Q13630_C116 [2]; 231: 20.0
isoTOP-ABPP ratio Q14790_C360 ([3]; 200 μM, insitu, 231): 20.0
isoTOP-ABPP ratio Q86W42_C35 ([9]; 200 μM, insitu, 231): 20.0
isoTOP-ABPP ratio Q9BRF8_C54 ([7]; 200 μM, insitu, 231): 20.0
isoTOP-ABPP ratio Q9NPH0_C267 ([8]; 200 μM, insitu, 231): 20.0
Compound: CC1CCc2ccccc2N1C(=O)CCl (centres unmarked) [compound 45]

isoTOP-ABPP ratio Q86W42_C35 ([9]; 200 μM, insitu, 231): 1.4
isoTOP-ABPP ratio Q96C19_C172 ([6]; 200 μM, insitu, 231): 1.2
Compound: O=C(CCl)Nc1cccc2ncccc12 [compound 51]
